# Where “and” joins values, the source holds several entries; their conditions need not be identical. Identical values can stand only once. Like-named read-outs stand apart in the source and are kept apart here.
# Columns and labels:
# [1] = Plasma concentration after intraduodenal administration (Example 8); format: in vivo, Sprague-Dawley rats; details: 30 mg/kg intraduodenal; for ZGN-201 Conc. in Rat Plasma, individual animals: listed as ZGN-201
# Protocol: A study was undertaken to investigate absorption of fumagillin from the small intestine. Five male Sprague-Dawley rats were fasted, and were then catheterized into the duodenum, 1.5 centimeters below the stomach. The stomachs of these rats were tied off so administration would bypass the stomach of each rat. Rats were then infused with 30 mg/kg of fumagillin and an equal volume of Trypan blue (Invitrogen). To determine absorption of fumagillin into the small intestine, blood was collected from the jugular vein of each rat at time points of 0 min., 5 min. (graphically illustrated as 0.083), 15 min. (graphically illustrated as 0.25), 30 min. (graphically illustrated as 0.5), 2 hrs, and 8 hrs.
# [2] = humans, 30 mg/day to 60 mg/day; Molina et al., Seneca; cited from earlier work
# diet-induced obese mice = experiment: 47-day weight and food intake study in diet-induced obese mice (Example 5); format: in vivo, C57BL/6NTac mice; details: 1 mg/kg/day oral gavage
# Protocol: Mice were divided into two groups, a diet-induced obese group and a lean group (control). For the diet-induced obese group, C57BL/6NTac mice maintained prior to and during the study on a diet containing 60% fat on a kilocalorie basis were further divided into two groups, fifteen mice per group. Average body weight of these diet-induced obese mice was 40 g at the start of the study. […] Daily food consumption was also recorded.
# Fumagillin was administered to one of the diet-induced obese mice groups by oral gavage as a solution in 10% DMSO, at dose of 1 mg/kg/day, for 47 days. The other diet-induced obese mice group and the lean mice group were not administered anything.
# leptin = experiment: Plasma marker leptin in diet-induced obese mice (Example 10); format: in vivo, C57BL/6 mice; details: 1 mg/kg/day oral gavage, end of study vs prior, FIG. 15
# Protocol: Mice were divided into four groups, a diet-induced obese group administered fumagillin at 1 mg/kg/day (oral gavage as a solution in 0.25% DMSO), a Pair-fed group, a caloric restriction group, and a diet-induced obese group. For the diet-induced obese groups, C57BL/6 mice were maintained prior to and during the study on a diet containing 42% fat on a kilocalorie basis. Plasma markers were measured prior to and at the end of the study.
# [3] = Plasma concentration after oral administration in a non-enterically coated capsule (Example 7); format: in vivo, Sprague-Dawley rats; details: 30 mg/kg capsule oral
# Protocol: A study was undertaken to investigate absorption of fumagillin orally administered in a capsule. Five male Sprague-Dawley rats were fasted, and were then each orally administered a non-enterically coated capsule containing 30 mg/kg of fumagillin. […] (graphically illustrated as 0.17), 20 min. (graphically illustrated as 0.33), 30 min. […]
# blood cells = experiment: Complete blood analysis (CBC) after oral fumagillin in lean rats (Example 9); format: in vivo, Sprague-Dawley rats; details: for lymphocyte count / neutrophil count / white blood cell count: 3 mg/kg oral gavage on day 3 and day 9
# Protocol: Male lean Sprague-Dawley rats were divided into two groups, ten rats per group. One group of rats received fumagillin by oral gavage as a solution in 10% DMSO, at dose of 3 mg/kg. Administration of fumagillin to this group of rats was performed on day 3 and day 9 of the study. The other group of rats was administered by oral gavage a solution of 10% DMSO/90% water (vehicle-only). Administration of vehicle to this group of rats was performed on day 3 and day 9 of the study. Blood samples were collected daily for complete blood analysis (CBC).
compound,measurement,setting,value
CO[C@@H]1[C@H](OC(=O)/C=C/C=C/C=C/C=C/C(=O)O)CC[C@]2(CO2)[C@H]1[C@@]1(C)O[C@@H]1CC=C(C)C [fumagillin],"ZGN-201 Conc. in Rat Plasma, individual animals","[1]; male rats 1, 3, 4, 5, time point 0 hr",BQL (BQL: 1 ng/mL)
same,"ZGN-201 Conc. in Rat Plasma, individual animals","[1]; male rats 1, 3, 4, 5, time point 0.083 hr",30286.5 ng/mL and 30532.1 ng/mL and 31057 ng/mL
same,"ZGN-201 Conc. in Rat Plasma, individual animals","[1]; male rats 1, 3, 4, 5, time point 0.25 hr",9275.7 ng/mL and 9903.7 ng/mL and 13584.2 ng/mL
same,"ZGN-201 Conc. in Rat Plasma, individual animals","[1]; male rats 1, 3, 4, 5, time point 0.5 hr",1104.6 ng/mL and 2295 ng/mL and 1109.8 ng/mL and 1225.1 ng/mL
same,"ZGN-201 Conc. in Rat Plasma, individual animals","[1]; male rats 1, 3, 4, 5, time point 2 hr",95 ng/mL and 66.5 ng/mL and 79.3 ng/mL and 27.5 ng/mL
same,"ZGN-201 Conc. in Rat Plasma, individual animals","[1]; male rats 1, 3, 4, 5, time point 8 hr",9 ng/mL and 6.9 ng/mL and 6.8 ng/mL
same,absorption profile compared to absorption through the stomach,[1]; rats,large absorption profile in the small intestine
same,concentration at 0 hr,"[1]; male, Sprague-Dawley, rat, plasma, other: intraduodenal, 30 mg/kg, male rats 1, 3, 4, 5, time point 0 hr, read-out: ZGN-201 Conc. in Rat Plasma, individual animals",1 ng/mL
same,concentration at 0.083 hr,"[1]; male, Sprague-Dawley, rat, plasma, other: intraduodenal, 30 mg/kg, male rats 1, 3, 4, 5, time point 0.083 hr, read-out: ZGN-201 Conc. in Rat Plasma, individual animals",31400 ng/mL
same,concentration at 0.25 hr,"[1]; male, Sprague-Dawley, rat, plasma, other: intraduodenal, 30 mg/kg, male rats 1, 3, 4, 5, time point 0.25 hr, read-out: ZGN-201 Conc. in Rat Plasma, individual animals",7710 ng/mL
same,concentration at 8 hr,"[1]; male, Sprague-Dawley, rat, plasma, other: intraduodenal, 30 mg/kg, male rats 1, 3, 4, 5, time point 8 hr, read-out: ZGN-201 Conc. in Rat Plasma, individual animals",11.9 ng/mL
same,concentration at 0.083 hr,"[1]; male, Sprague-Dawley, rat, plasma, other: intraduodenal, 30 mg/kg, male rats, time point 0.083 hr, read-out: ZGN-201 Conc. in Rat Plasma, Mean",25100 ng/mL
same,concentration at 0.25 hr,"[1]; male, Sprague-Dawley, rat, plasma, other: intraduodenal, 30 mg/kg, male rats, time point 0.25 hr, read-out: ZGN-201 Conc. in Rat Plasma, Mean",9200 ng/mL
same,concentration at 0.5 hr,"[1]; male, Sprague-Dawley, rat, plasma, other: intraduodenal, 30 mg/kg, male rats, time point 0.5 hr, read-out: ZGN-201 Conc. in Rat Plasma, Mean",1730 ng/mL
same,concentration at 2 hr,"[1]; male, Sprague-Dawley, rat, plasma, other: intraduodenal, 30 mg/kg, male rats, time point 2 hr, read-out: ZGN-201 Conc. in Rat Plasma, Mean",506 ng/mL
same,concentration at 8 hr,"[1]; male, Sprague-Dawley, rat, plasma, other: intraduodenal, 30 mg/kg, male rats, time point 8 hr, read-out: ZGN-201 Conc. in Rat Plasma, Mean",20 ng/mL
same,concentration at 5 min,"[1]; male, Sprague-Dawley, rat, plasma, other: intraduodenal, 30 mg/kg, rats, 5 min. from administration (time point 0.083), read-out: amount of absorption by the small intestine",3000 ng/mL
same,blood disorders developed by patients,[2],"thrombocytopenia, leukopenia, and neutropenia"
same,effect on lean body mass,"diet-induced obese mice; 47 days, weight plateaued at weight of lean mice",without substantial reduction of lean body mass
same,average weight,diet-induced obese mice; day seventeen (from 40 g on day 1),32 g
same,average weight,diet-induced obese mice; maintained through day 47,approximately 32 g
same,amount of food consumed,diet-induced obese mice; throughout 47 days,2.2 g/day
same,leptin levels,leptin,reduced
same,"ZGN-201 Conc. in Rat Plasma, individual animals","[3]; male rats 1-5, time point 0 hr",BQL (BQL: 1 ng/mL)
same,"ZGN-201 Conc. in Rat Plasma, individual animals","[3]; male rats 1-5, time point 0.17 hr",BQL (BQL: 1 ng/mL)
same,"ZGN-201 Conc. in Rat Plasma, individual animals","[3]; male rats 1-5, time point 0.33 hr, listed as ZGN-201",5.3 ng/mL and 1.9 ng/mL and 1.6 ng/mL and 1.8 ng/mL and 5.2 ng/mL
same,"ZGN-201 Conc. in Rat Plasma, individual animals","[3]; male rats 1-5, time point 0.5 hr, listed as ZGN-201",14.3 ng/mL and 4.5 ng/mL and 3.6 ng/mL and 3 ng/mL and 11.4 ng/mL
same,"ZGN-201 Conc. in Rat Plasma, individual animals","[3]; male rats 1-5, time point 1 hr, listed as ZGN-201",36.1 ng/mL and 14.5 ng/mL and 8.9 ng/mL and 3.6 ng/mL and 117.9 ng/mL
same,"ZGN-201 Conc. in Rat Plasma, individual animals","[3]; male rats 1-5, time point 2 hr, listed as ZGN-201",81.2 ng/mL and 98.2 ng/mL and 125.4 ng/mL and 9.5 ng/mL and 156.4 ng/mL
same,"ZGN-201 Conc. in Rat Plasma, individual animals","[3]; male rats 1-5, time point 8 hr, listed as ZGN-201",36.6 ng/mL and 47.1 ng/mL and 141.3 ng/mL and 31.6 ng/mL and 116.8 ng/mL
same,absorption through the stomach,[3]; rats,poorly absorbed through the stomach
same,time after administration at which absorption is first observed,[3]; rats,20 min
same,time of peak absorption after administration,[3]; rats,approximately 2 hrs
same,maximal concentration absorbed into the blood,"[3]; rats, time point 2",approximately 100 ng/ml
same,concentration at 0.33 hr,"[3]; male, Sprague-Dawley, rat, plasma, oral, 30 mg/kg, male rats, time point 0.33 hr, read-out: ZGN-201 Conc. in Rat Plasma, Mean",3 ng/mL
same,concentration at 0.5 hr,"[3]; male, Sprague-Dawley, rat, plasma, oral, 30 mg/kg, male rats, time point 0.5 hr, read-out: ZGN-201 Conc. in Rat Plasma, Mean",7 ng/mL
same,concentration at 1 hr,"[3]; male, Sprague-Dawley, rat, plasma, oral, 30 mg/kg, male rats, time point 1 hr, read-out: ZGN-201 Conc. in Rat Plasma, Mean",36 ng/mL
same,concentration at 2 hr,"[3]; male, Sprague-Dawley, rat, plasma, oral, 30 mg/kg, male rats, time point 2 hr, read-out: ZGN-201 Conc. in Rat Plasma, Mean",94 ng/mL
same,concentration at 8 hr,"[3]; male, Sprague-Dawley, rat, plasma, oral, 30 mg/kg, male rats, time point 8 hr, read-out: ZGN-201 Conc. in Rat Plasma, Mean",75 ng/mL
same,lymphocyte count,blood cells; day 3,approximately 4000 lymphocytes/4
same,neutrophil count,blood cells; day 3,approximately 650 neutrophils/4
same,white blood cell count,blood cells; day 3,approximately 5000 white blood cells/4
same,lymphocyte count,blood cells; day 9,approximately 3900 lymphocytes/4
same,neutrophil count,blood cells; day 9,approximately 1100 neutrophils/4
same,white blood cell count,blood cells; day 9,approximately 5200 white blood cells/4
same,development of a blood disorder,"blood cells; 3 mg/kg oral gavage, rats",do not result in development of a blood disorder
same,"variation vs vehicle-only rats in white blood cell, lymphocyte and neutrophil count","blood cells; 3 mg/kg oral gavage, statistical analysis",not statistically significant

# From patent US9925166B2, “Methods of treating an overweight or obese subject” (Zafgen, Inc., priority 2008, dated 2018)
